Laboratory results as given in patent publication US6001880A, “Alkylenediamine derivative, anti-ulcer drug, and antibacterial drug” (Shiseido Co., Ltd., priority 1997, dated 1999).

system: not listed separately; experiment: MTT: Cell Damaging and Protecting Effect Test; type: cell-based, rabbit (male Japanese White); details: rabbit, gastric corpus mucosa cells, final concentration 10^-4 M, smaller value is better, read-out: MTT: cell damaging rate
Text: MTT: Cell Damaging and Protecting Effect Test
It is confirmed that there is no toxicity in cell level. Those having a toxicity in cell level are inappropriate as an anti-ulcer drug.
A male Japanese White rabbit (2.5 to 3 kg) was anesthetized to death by Nembutal™ and, immediately thereafter, its stomach was removed. The greater curvature of the stomach was incised so as to remove the stomach contents therefrom. After the mucosal surface was washed with HBSS (Hanks' Balanced Salt Solution), the stomach in ice-cooled HBSS was transferred to a laboratory. Then, after the pyloric antrum was removed, the gastric corpus mucosa was separated by a spatula and then minced into 2 to 3 mm^3 pieces in BME (Basal Medium Eagle). Thereafter, these pieces were shaken at 120 to 130 cycles/minute for 15 minutes at 37° C. in BME 60 ml containing 280 U/ml of dispase and 30 to 50 U/ml of collagenase. Here, the concentration of collagenase was appropriately changed for each lot in view of the state of cells. The pieces were washed twice with EBSS (Earle's Balanced Salt Solution) containing 1 mM of EDTA and then shaken in MEM (Minimum Essential Medium) containing 1 mM of EDTA at 37° C. for 5 minutes. Subsequently, they were shaken in the dispase and collagenase having the same concentrations as those mentioned above for 15 minutes so as to remove the supernatant and then further shaken at 37° C. for 50 to 60 minutes at 120 to 130 cycles/minute. Then, after being washed twice with HBSS, Ham F12 containing 2% of Ultrocer G™ was used to attain the concentration of 1×10^6 cells/ml. Thus formed suspension was dispensed in each well of a 96-well plate by 200 μl. The plate was incubated in the atmosphere composed of 5% CO2 and 95% air at 37° C. for three days so as to attain a confluent state and then subjected to MTT assay.
The sample compound was dissolved in DMSO so as to attain a concentration of 10^-2 M and then diluted with HBSS containing 2% of Ultrocer G™ so as to attain a final concentration of 10^-4 M. To each group, which 8 wells were used for, 10 μl of MTT reagent was added immediately after 100 μl of the medium in each well was exchanged for same volume of the resulting solution of the sample compound. After being incubated in an atmosphere composed of 5% CO2 and 95% air at 37° C. for 4 hours, thus formed solution was centrifuged and then its supernatant was discarded. Subsequently, 100 μl of 100% ethanol was added to the residue so as to dissolve MTT formazan. Then, the absorbance (OD: 570 to 630) was measured by a microplate reader. This method utilizes a phenomenon in which MTT is changed to MTT formazan only by mitochondria of living cells so as to change color.
The cell damaging or cell protecting effect of the sample compound at the final concentration of 10^-4 M was expressed as cell damaging rate (%) as follows:
cell damaging rate (%)=(1-(absorbance in sample group/absorbance in control
Accordingly, the smaller value is better in the cell damaging rate.

SMILES	cytotoxicity at 4 h, 100 µM
CC(C)=CCC/C(C)=C/COc1ccc(C(=O)NCCN(CC(C)C)CC(C)C)cc1 [Example 9]	15%
CCN(CC)CCNC(=O)c1cc(OC)c(OC)c(OCC=C(C)C)c1 [Example 40]	-2%
COc1cc(C(=O)NCCN(C)C)cc(OC)c1OC/C=C(\C)CCC=C(C)C [Example 43]	1%
CC(C)=CCOc1cccnc1C(=O)NCCN(C)C [Example 53]	1%
CCN(CC)CCNC(=O)c1ncccc1OCC=C(C)C [Example 54]	-10%
CC(C)=CCOc1cccnc1C(=O)NCCN(C(C)C)C(C)C [Example 55]	20%
CC(C)N(CCNC(=O)c1ccc2c(c1)OCO2)C(C)C [Example 58]	29%
CC(C)N(CCNC(=O)c1cc(C(C)(C)C)cc(C(C)(C)C)c1)C(C)C [Example 65]	5%
CC(C)N(CCNC(=O)c1ccc(C(=O)NC(C)(C)C)cc1)C(C)C [Example 67]	-35%

system: isolated gastric fundic gland; experiment: CAP: Acid Secretion Inhibition Test In Vitro ([14C]-aminopyrine uptake); type: cell-based, rabbit (male Japanese White); details: Oryctolagus cuniculus; final concentration 10^-5 M; histamine 10^-5 M stimulation; read-out: CAP: acid secretion inhibitory rate
Description: CAP: Acid Secretion Inhibition Test In Vitro
The acid secretion inhibitory activity in a cell level is studied. It can also be used for studying the mechanism of the effect.
First, an isolated gastric fundic gland sample was prepared. Namely, a male Japanese White rabbit (2.5 to 3 kg) was anesthetized to death with Nembutal™ and then the abdomen was incised. Immediately thereafter, the stomach was removed and, after its pyloric and cardiac antrum were severed, incised along its greater curvature into two sheets. The gastric contents adhering to the mucosal surface was washed out with ice-cooled PBS (-) and then carefully washed therein. The gastric wall was spread on a cork board with its mucosal surface facing up and the feed and mucus thereon were completely removed with sterile gauze. The mucosa was separated therefrom by a spatula and then collected in ice-cooled PBS (-). After being washed twice with PBS (-), the mucosa was minced into 2-3 mm^3 pieces by scissors. These pieces were further washed twice with a nutrient solution. The nutrient solution comprises 132.4 mM of NaCl, 5.4 mM of KCl, 5 mM of Na2 HPO4. 12H2 O, 1 mM of NaH2 PO4.2H2 O, 1.2 mM of MgSO4, 1 mM of CaCl2, 25 mM of HEPES, 2 mg/ml of glucose, and 1 mg/ml of BSA.
Into 70 ml of the nutrient solution containing 1 mg/ml of collagenase, minced mucosal pieces were dispersed and intensely stirred in a conical flask with a stirrer at 37° C. for 40 to 60 minutes. During this period, 100% O2 was sprayed on the nutrient solution surface and the pH was appropriately measured such that it was immediately adjusted to pH 7.4, when the value was therebelow, with a base. The nutrient solution was added to the reaction solution so as to attain the total amount of about 200 ml. After being filtered through a mesh, the suspension was divisionally introduced into 50 ml centrifuge tubes and left for 15 minutes such that gastric fundic gland was deposited. The supernatant was repeatedly removed by an aspirator, dispersed in the nutrient solution, and then left such that the gastric fundic gland was washed three times. At this time, without using a pipette, the suspension was alternately introduced into two centrifuge tubes so as to effect dispersion. The number of cells was counted under microscope and adjusted to 1.6×10^6 cells/ml.
Then, [^14 C]-aminopyrine uptake test was performed. After an Eppendorf tube was weighed, 10 μl (final concentration: 10^-5 M) of histamine dissolved in the above-mentioned nutrient solution, 10 μl (final concentration: […]) of the test compound dissolved in DMSO, and 10 μl (final concentration: 0.05 μCi/ml) of [^14 C]-aminopyrine diluted with the nutrient solution were introduced therein and then 970 μl of the isolated gastric fundic gland suspension prepared above was added thereto. Subsequently, this mixture was shaken at 37° C. for 40 minutes at 125 cycles/minute. After being centrifuged for 30 seconds, 200 μl of its supernatant was collected into a mini-vial, while the rest was removed by an aspirator. The gland pellet was completely dried as the tube with its lid being opened was kept for one night in a drying oven at 80° C. and then the lid was closed and the weight was determined at room temperature. Then 100 μl of 1N KOH was added thereto and the tube with its lid being closed was treated at 60° C. for 1 to 2 hours so as to dissolve the pellet. Then, the contents thereof were transferred to a mini-vial. Into the mini-vial containing the supernatant or gland pellet, 4 ml of Atomlite™ was added and then the radioactivity was measured by a liquid scintillation counter. Here, after the radioactivity of the gland pellet was corrected by using a sample in which 20 mM of NaSCN was added so as to cancel the hydrogen ion concentration gradient, the integration ratio of aminopyrine specifically trapped by the gland pellet was calculated. This experiment was performed in duplicate.
Here, its principle will be briefly explained. […]

SMILES	inhibition at 10 µM
CCN(CC)CCNC(=O)c1ccc(OC/C=C(\C)CC/C=C(\C)CCC=C(C)C)cc1 [Example 6]	97.9%
CCCCN(C)CCNC(=O)c1ccc(OC/C=C(\C)CCC=C(C)C)cc1 [Example 11]	100%
CC(C)=CCC/C(C)=C/COc1ccc(C(=O)NCCN(C)C(C)(C)C)cc1 [Example 12]	99.9%
CC(C)=CCC/C(C)=C/CNc1ccc(C(=O)NCCN(C(C)C)C(C)C)cc1 [Example 26]	100%
CC(C)=CCC/C(C)=C/COc1ccc(C(=O)NCCN(C(C)C)C(C)C)cc1CC(C)C [Example 34]	100%
CCN(CC)CCNC(=O)c1cccnc1OC/C=C(\C)CCC=C(C)C [Example 52]	101%
CC(C)COc1ccc(C(=O)NCCN(C(C)C)C(C)C)cc1 [Example 60]	97.3%
CC(C)N(CCNC(=O)c1ccc(C(C)(C)C)cc1)C(C)C [Example 61]	97.3%
CCCCCCCCc1ccc(C(=O)NCCN(C(C)C)C(C)C)cc1 [Example 63]	101%
CC(C)N(CCNC(=O)c1ccc(N(C)C)cc1)C(C)C [Example 70]	101%

system: stress ulcer formation in rats; experiment: WIS: Restraint and Water Immersion Stress-Induced Ulcer Inhibition Test; type: in vivo, rat (male Crj:SD or Slc:SD); details: 100 mg/kg oral, 10 minutes before 7 h restraint and water immersion (21° C.)
Description: WIS: Restraint and Water Immersion Stress-Induced Ulcer Inhibition Test
The degree of inhibition of the stress ulcer formation is tested.
Male Crj:SD or Slc:SD rats (6 to 7-week-old) were fasted overnight, but allowed free access to water. Each group has 5 to 8 of these rats. The sample compound was dissolved or suspended in an aqueous solution of 0.3% sodium carboxymethylcellulose or 0.05% Tween 80 and then was orally administered (100 mg/10 ml/kg). To a control group, the vehicle was administered. 10 minutes later, the rats were placed in a stress cage and immersed to the level of xipfoid process in a water bath (21° C.) for 7 hours. At the end of the stress, the rats were sacrificed by inhalation of ether or carbon dioxide. Then, the stomach of each was removed, inflated by injecting 10 ml of 5% formalin neutral buffer solution, and immersed in 1% formalin neutral buffer solution for 30 minutes or more to be fixed. The stomach was incised along the greater curvature and then the length of each erosion in the glandular portion was determined under dissecting microscope. The sum of the length of erosions per stomach was defined as ulcer index (UI).
The effect obtained when 100 mg/kg of the sample compound had been administered was expressed as ulcer formation inhibitory rate (%) as follows:
ulcer formation inhibitory rate (%)=(1-(UI in sample group/UI in control

SMILES	WIS: ulcer formation inhibitory rate
CCN(CC)CCNC(=O)c1cccc(OC/C=C(\C)CCC=C(C)C)c1 [Example 1]	72%
CCN(CC)CCNC(=O)c1ccc(OC/C=C(\C)CCC=C(C)C)cc1 [Example 4]	83%
CCN(CC)CCNC(=O)c1ccc(OC/C=C(\C)CC/C=C(\C)CCC=C(C)C)cc1 [Example 6]	52%
CC(C)=CCC/C(C)=C/COc1ccc(C(=O)NCCN(CC(C)C)CC(C)C)cc1 [Example 9]	40%
CC(C)=CCC/C(C)=C/COc1ccc(C(=O)NCCN(C)CC(C)C)cc1 [Example 10]	65%
CCCCN(C)CCNC(=O)c1ccc(OC/C=C(\C)CCC=C(C)C)cc1 [Example 11]	45%
CC(C)=CCC/C(C)=C/COc1ccc(C(=O)NCCN(C)C(C)(C)C)cc1 [Example 12]	34%
CCN(CC)CCNC(=O)c1ccc(OC/C=C(\C)CCC=C(C)C)c(OC/C=C(\C)CCC=C(C)C)c1 [Example 18]	37%
CCN(CC)CCNC(=O)c1cc(OC/C=C(\C)CCC=C(C)C)cc(OC/C=C(\C)CCC=C(C)C)c1 [Example 19]	69%
CCN(CC)CCNC(=O)c1cc(OCC=C(C)C)c(OCC=C(C)C)c(OCC=C(C)C)c1 [Example 23]	81%
CC(C)=CCOc1cc(C(=O)NCCN(C)C)cc(OCC=C(C)C)c1OCC=C(C)C [Example 24]	70%
CC(C)=CCC/C(C)=C/CNc1ccc(C(=O)NCCN(C(C)C)C(C)C)cc1 [Example 26]	49%
CC(C)=CCC/C(C)=C/COc1ccc(C(=O)NCCN(C(C)C)C(C)C)cc1CC(C)C [Example 34]	48%
CCN(CC)CCNC(=O)c1cc(OC)c(OCC=C(C)C)c(OC)c1 [Example 36]	88%
CCN(CC)CCNC(=O)c1cc(OC)c(OC)c(OCC=C(C)C)c1 [Example 40]	79%
COc1cc(C(=O)NCCN(C)C)cc(OC)c1OC/C=C(\C)CCC=C(C)C [Example 43]	88%

SMILES	WIS: ulcer formation inhibitory rate
CC(C)=CCOc1ccc(C(=O)NCCN(C)C)cn1 [Example 44]	30%
CC(C)=CCOc1ncccc1C(=O)NCCN(C)C [Example 45]	41%
CCN(CC)CCNC(=O)c1cccnc1OCC=C(C)C [Example 47]	80%
CC(C)=CCC/C(C)=C/COc1ccc(C(=O)NCCN(C)C)cn1 [Example 49]	38%
CCN(CC)CCNC(=O)c1cccnc1OC/C=C(\C)CCC=C(C)C [Example 52]	57%
CC(C)=CCOc1cccnc1C(=O)NCCN(C)C [Example 53]	67%
CCN(CC)CCNC(=O)c1ncccc1OCC=C(C)C [Example 54]	78%
CC(C)=CCOc1cccnc1C(=O)NCCN(C(C)C)C(C)C [Example 55]	97%
CC(C)N(CCNC(=O)c1ccc2c(c1)OCO2)C(C)C [Example 58]	96%
CC(C)COc1ccc(C(=O)NCCN(C(C)C)C(C)C)cc1 [Example 60]	98%
CC(C)N(CCNC(=O)c1ccc(C(C)(C)C)cc1)C(C)C [Example 61]	94%
CCCCCCCCc1ccc(C(=O)NCCN(C(C)C)C(C)C)cc1 [Example 63]	49%
CC(C)N(CCNC(=O)c1cc(C(C)(C)C)cc(C(C)(C)C)c1)C(C)C [Example 65]	86%
CC(C)N(CCNC(=O)c1ccc(C(=O)NC(C)(C)C)cc1)C(C)C [Example 67]	77%
CC(C)N(CCNC(=O)c1ccc(N(C)C)cc1)C(C)C [Example 70]	66%
